Measured values taken from ChEMBL document CHEMBL3352672, “Lithocarpic acids O-S, five homo-cycloartane derivatives from the cupules of Lithocarpus polystachyus” (Bioorg Med Chem Lett, 2014).

Tests used:
Format in all cases: cell-based
[1] = molecular target: T1, 11-beta-hydroxysteroid dehydrogenase 1 (Homo sapiens, UniProt P28845); assay: Inhibition of human 11beta-HSD1 in expressed in HEK293 cells microsomal fractions incubated with NADPH and [3H]-cortisone by scintillation proximity assay
Target sequence in this assay (P28845 whole entry): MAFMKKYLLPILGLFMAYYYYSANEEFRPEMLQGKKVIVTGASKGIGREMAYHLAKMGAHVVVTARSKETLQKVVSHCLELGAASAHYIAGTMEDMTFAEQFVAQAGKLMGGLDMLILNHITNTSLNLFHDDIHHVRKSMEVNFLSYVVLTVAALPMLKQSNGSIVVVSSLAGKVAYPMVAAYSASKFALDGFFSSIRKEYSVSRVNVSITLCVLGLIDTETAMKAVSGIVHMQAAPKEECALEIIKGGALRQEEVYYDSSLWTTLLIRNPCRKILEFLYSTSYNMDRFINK

[2] = molecular target: 11-beta-hydroxysteroid dehydrogenase 1 (Mus musculus) (UniProt P50172); assay: Inhibition of mouse 11beta-HSD1 in expressed in HEK293 cells microsomal fractions incubated with NADPH and [3H]-cortisone at 10 uM by scintillation proximity assay
[3] = molecular target: 11-beta-hydroxysteroid dehydrogenase 1 (Mus musculus, UniProt P50172); assay: Inhibition of mouse 11beta-HSD1 in expressed in HEK293 cells microsomal fractions incubated with NADPH and [3H]-cortisone by scintillation proximity assay
[4] = molecular target: T1, 11-beta-hydroxysteroid dehydrogenase 1; assay: Inhibition of human 11beta-HSD1 in expressed in HEK293 cells microsomal fractions incubated with NADPH and [3H]-cortisone at 10 uM by scintillation proximity assay
Target sequence in this assay (P28845 whole entry, looked up): as the sequence (P28845 whole entry) above

Sequence of 11-beta-hydroxysteroid dehydrogenase 1 (Mus musculus) (P50172 whole entry, looked up): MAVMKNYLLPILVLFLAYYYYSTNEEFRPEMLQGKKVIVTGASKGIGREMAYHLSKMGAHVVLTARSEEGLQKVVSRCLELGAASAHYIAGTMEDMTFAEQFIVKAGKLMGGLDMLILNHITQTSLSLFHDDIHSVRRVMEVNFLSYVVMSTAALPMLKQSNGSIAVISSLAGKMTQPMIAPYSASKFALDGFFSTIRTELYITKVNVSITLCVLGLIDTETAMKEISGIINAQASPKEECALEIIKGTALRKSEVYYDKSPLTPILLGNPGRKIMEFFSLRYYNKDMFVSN
Sequence of 11-beta-hydroxysteroid dehydrogenase 1 (Mus musculus, UniProt P50172) (P50172 whole entry): as the sequence (P50172 whole entry, looked up) above

| IC50 [1] [nM] | inhibition [2] [%] | IC50 [3] [nM] | inhibition [4] [%] | SMILES |
| --- | --- | --- | --- | --- |
| 3800 | – | – | – | C=C(CC[C@@H](COC(C)=O)[C@H]1CC[C@@]2(C)[C@@H]3CC[C@@H](C(C)(C)O)[C@@]4(CCC(=O)O)C[C@@]34CC[C@]12C)C(C)C |
| 4100 | 73 | 2800 | > 60 | C=C(CC[C@@H](COC(C)=O)[C@H]1CC[C@@]2(C)[C@@H]3CC[C@@H](C(=C)C)[C@@]4(CCC(=O)O)C[C@@]34CC[C@]12C)C(C)C |
| 1400 | 94 | 490 | > 80 | C=C(CC[C@@H](CO)[C@H]1CC[C@@]2(C)[C@@H]3CC[C@@H](C(=C)C)[C@@]4(CCC(=O)O)C[C@@]34CC[C@]12C)C(C)C |
| 2300 | > 60 | – | – | C=C(CC[C@@H](C(=O)O)[C@H]1CC[C@@]2(C)[C@@H]3CC[C@H]4C(C)(C)C(=O)CC[C@@]45C[C@@]35CC[C@]12C)C(C)C |
